Measured values: patent US20240368096A1 (Enanta Pharmaceuticals, Inc., priority 2022, published 2024)

Columns and labels:
[1] = system: HBV; assay: HBV infection in HepG2-NTCP cells (HBeAg AlphaLISA in supernatants); type: cell-based; conditions: Hepatitis B virus, 192 h; HBV infection of HepG2-NTCP cells; HBeAg in supernatants at day 8 post infection; read-out: Cellular EC50
Procedure, shortened: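 Readout was day-8 supernatant HBeAg by AlphaLISA, with EC50 set against DMSO controls and binned A<0.1 μM, B 0.1-1 μM, C>1 μM. Compounds were added 2 h before HBV (2000 GE/cell, 4% PEG, 0.5% DMSO) to HepG2-NTCP A3 cells; from day 1 medium held 2.5% DMSO.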

[2] = system: HDV; assay: HDV infection in HepG2-NTCP cells and RNA quantification (RT-qPCR); type: cell-based; conditions: 288 h; HDV infection of HepG2-NTCP cells; viral RNA by RT-qPCR at day 12 post infection; read-out: Cellular EC50
Description: HDV virus collected from the supernatants of HuH7-END cells was purified in the presence of 6% polyethylene glycol (PEG). Viral titer was then quantified by RT-qPCR using HDV specific primers against a reference standard. For HDV infection, HepG2-NTCP cells were seeded in 96-well plates at 60,000 cells/well. On the day of infection, compounds were 4-fold serially diluted in DMSO and pre-incubated with HepG2-NTCP cells for two hours before infecting with 800 GE/cell of HDV in 4% PEG. On day one post infection, HDV-containing media was aspirated, cells were washed once with PBS and then maintained in 2.5% DMSO containing media for the remainder of the assay. Viral RNA was isolated using RNeasy kits (Qiagen) at day 12 post infection and reverse transcribed into cDNA using High-Capacity RNA-to-cDNA Kit (Thermo Fisher). Relative HDV gene expression was quantified by RT-qPCR after normalization to expression of a housekeeping gene. Irrespective of readout, compound concentrations that reduce viral RNA by 50% relative to DMSO controls (EC50) are reported. EC50 ranges are as follows: A<0.1 μM; B 0.1-1 μM; C>1 μM.

[3] = system: HDV; assay: HDV infection in primary human hepatocytes (PHHs) and RNA quantification (RT-qPCR); type: cell-based; conditions: Hepatocyte, 192 h, HDV infection of primary human hepatocytes, viral RNA at day 8 post infection
From the text: Primary human hepatocytes (Thermo Fisher Scientific) were thawed in Williams E Medium with CM3000 supplement pack (Thermo Fisher Scientific) and seeded at 70,000 cells/well on collagen-coated 96-well plate. Six hours post-seeding, cell medium was changed to Williams E Medium with CM4000 cell maintenance supplement pack for further culture (Thermo Fisher Scientific). HDV virus collected from the supernatants of HuH7-END cells was purified in the presence of 6% polyethylene glycol (PEG). Viral titer was then quantified by RT-qPCR using HDV specific primers against a reference standard. On the day of infection, compounds were 4-fold serially diluted in DMSO and pre-incubated with PHHs for two hours before infecting with 100 GE/cell of HDV in 4% PEG. On day one post infection, HDV-containing media was aspirated, cells were washed once with PBS and then maintained in 2.5% DMSO containing media for the remainder of the assay. Viral RNA was isolated using RNeasy kits at day 8 post infection and reverse transcribed into cDNA using High-Capacity RNA-to-cDNA Kit. Relative HDV gene expression was quantified by RT-qPCR after normalization to expression of a housekeeping gene. Irrespective of readout, compound concentrations that reduce viral RNA by 50% relative to DMSO controls (EC50) are reported. EC50 ranges are as follows: A<0.1 μM; B 0.1-1 μM; C>1 μM.

[4] = target: T1, NTCP (Homo sapiens, UniProt Q14973); assay: HepG2-NTCP preS1 binding competition assay (FITC-labeled myristoylated preS1 peptide); conditions: HepG2-NTCP cells; competition with FITC-labeled preS1 peptide
T1 construct: expressed in transfected cells; host or cells: HepG2-NTCP (clone A3, kept under puromycin)
T1 sequence (Q14973 1-349): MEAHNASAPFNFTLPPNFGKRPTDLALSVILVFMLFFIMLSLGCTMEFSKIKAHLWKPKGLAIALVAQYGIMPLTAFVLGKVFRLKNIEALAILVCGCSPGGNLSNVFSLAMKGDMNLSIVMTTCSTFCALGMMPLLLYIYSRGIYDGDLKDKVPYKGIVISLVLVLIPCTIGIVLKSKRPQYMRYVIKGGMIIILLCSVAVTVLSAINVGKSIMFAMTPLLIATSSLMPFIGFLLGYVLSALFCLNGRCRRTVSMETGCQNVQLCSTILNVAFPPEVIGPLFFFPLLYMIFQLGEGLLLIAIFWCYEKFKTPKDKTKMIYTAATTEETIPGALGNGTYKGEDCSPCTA
Description: HepG2-NTCP preS1 Binding Competition Assay
Myristoylated preS1 peptide (2-48 aa) conjugated to a C-terminal FITC tag was synthesized to evaluate preS1 binding to NTCP-expressing cells. HepG2-NTCP cells seeded in 384-wells were pre-treated with compounds for 2 hours prior to the addition of FITC-labeled preS1 peptide. After co-incubation for 30 minutes, unbound FITC-preS1 peptide was washed twice with PBS, and the fluorescence of preS1-FITC bound to cell surface was detected by Envision plate reader. EC50 ranges are as follows: A<0.1 μM; B 0.1-1 μM; C>1 μM.

[5] = Donor 1, read-out: Cellular EC50 (μM) Donor 1

Row | EC50 [1] [µM] | EC50 [2] [µM] | EC50 [4] [µM] | SMILES | EC50 [3, 5] [µM] | EC50 ([3]; Donor 2, read-out: Cellular EC50 (μM) Donor 2) [µM]
1 | < 0.1 | < 0.1 |  | CN1[C@H](C2CCCCC2)CN(c2ccccc2)c2cc(Cl)c(-c3ccc(F)c(C(=O)O)c3)cc2S1(=O)=O [Example 25, (R)-5-(7-chloro-3-cyclohexyl-2-methyl-1,1-dioxido-5-phenyl-2,3,4,5-tetrahydrobenzo[f][1,2,5]thiadiazepin-8-yl)-2-fluorobenzoic acid] | < 0.1 | 0.1 to 1
2 | < 0.1 | < 0.1 | < 0.1 | CN1[C@H](C2CCCCC2)CN(c2ccccc2)c2cc(Cl)c(-c3cc(F)c(C(=O)O)s3)cc2S1(=O)=O [Example 116, (R)-5-(7-chloro-3-cyclohexyl-2-methyl-1,1-dioxido-5-phenyl-2,3,4,5-tetrahydrobenzo[f][1,2,5]thiadiazepin-8-yl)-3-fluorothiophene-2-carboxylic acid] | < 0.1 | 
3 | < 0.1 | < 0.1 |  | Cc1cc(-c2cc3c(cc2Cl)N(c2ccccc2)C[C@@H](C2CCCCC2)N(C)S3(=O)=O)sc1C(=O)O [Example 126, (R)-5-(7-chloro-3-cyclohexyl-2-methyl-1,1-dioxido-5-phenyl-2,3,4,5-tetrahydrobenzo[f][1,2,5]thiadiazepin-8-yl)-3-methylthiophene-2-carboxylic acid] |  | 
